In US10881653B2, “Tricyclic compounds and their use in the treatment of cancer” (The United States of America, as represented by the …, priority 2015, dated 2021):
Structures can show the parent of a compound that is named as a salt. Where two headings read alike, the source gives them in different places.

How the values were obtained:
[1] = biological target: T1, gluthathione reductase (GR) (Homo sapiens, UniProt P00390); experiment: Inhibition of recombinant GR (GSSG assay); format: biochemical
T1 sequence (P00390 44-522): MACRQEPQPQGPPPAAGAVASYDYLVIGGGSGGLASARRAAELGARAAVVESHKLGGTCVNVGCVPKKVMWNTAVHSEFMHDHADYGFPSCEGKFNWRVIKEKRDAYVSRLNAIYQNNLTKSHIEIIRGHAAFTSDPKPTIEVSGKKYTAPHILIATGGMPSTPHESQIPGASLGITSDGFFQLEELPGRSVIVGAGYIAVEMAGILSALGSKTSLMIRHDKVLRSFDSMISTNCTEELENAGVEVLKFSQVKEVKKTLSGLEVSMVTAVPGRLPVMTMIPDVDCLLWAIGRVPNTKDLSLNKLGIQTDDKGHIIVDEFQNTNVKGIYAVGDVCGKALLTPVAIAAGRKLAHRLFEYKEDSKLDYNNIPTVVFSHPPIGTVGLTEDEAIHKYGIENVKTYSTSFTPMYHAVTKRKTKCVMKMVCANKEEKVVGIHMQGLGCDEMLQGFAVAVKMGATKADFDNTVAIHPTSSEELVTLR
How it was run: (§1)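 Human TrxR1 (15 nM) or GR (2 nM) preincubated 15 min with compound, 250 μM NADPH, 0.1 mg/ml BSA in 50 mM Tris pH 7.5, 2 mM EDTA, 1% DMSO. Reaction started with 2.5 mM DTNB (TrxR1, A412) or 1 mM GSSG (GR, A340). Percent activity relative to DMSO and no-enzyme blanks.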

[2] = biological target: T2, recombinant thioredoxin reductase 1 (TrxR1) (Homo sapiens, UniProt Q16881); experiment: Inhibition of recombinant TrxR1 (DTNB assay); format: biochemical
T2 sequence (Q16881 1-649): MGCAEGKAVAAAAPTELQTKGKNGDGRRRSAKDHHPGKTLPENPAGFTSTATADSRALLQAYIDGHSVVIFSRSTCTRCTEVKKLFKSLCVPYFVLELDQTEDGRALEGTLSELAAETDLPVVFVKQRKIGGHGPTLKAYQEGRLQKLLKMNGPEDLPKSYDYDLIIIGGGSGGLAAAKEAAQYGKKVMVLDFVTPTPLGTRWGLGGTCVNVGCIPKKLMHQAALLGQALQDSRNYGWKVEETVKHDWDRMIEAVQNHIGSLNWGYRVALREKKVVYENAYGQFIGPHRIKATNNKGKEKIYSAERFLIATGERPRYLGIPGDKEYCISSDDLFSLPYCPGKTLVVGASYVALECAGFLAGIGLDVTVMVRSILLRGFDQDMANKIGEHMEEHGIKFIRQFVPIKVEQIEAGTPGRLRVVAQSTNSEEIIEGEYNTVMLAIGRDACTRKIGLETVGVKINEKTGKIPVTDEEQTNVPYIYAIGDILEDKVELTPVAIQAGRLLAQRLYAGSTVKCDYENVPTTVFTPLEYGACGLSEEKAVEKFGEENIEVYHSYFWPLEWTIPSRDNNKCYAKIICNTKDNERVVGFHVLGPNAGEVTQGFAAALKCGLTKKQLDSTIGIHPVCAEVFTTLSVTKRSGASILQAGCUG
How it was run: as §1

[3] = Biological Example 4, assays of Biological Example 1
[4] = Biological Example 4, assays of Biological Example 1, read-out: TrxR Inhibition

Compound | IC50 [1, 3] | IC50 [2, 4] | IC50 ([1]; Biological Example 1, 2 nM GR, 250 μM NADPH, 15 minutes incubation) | IC50 ([2]; Biological Example 1, 15 nM TrxR1, 250 μM NADPH, 15 minutes incubation, read-out: TrxR inhibition)
O=C1C=CC2C3C(=O)N(c4ccccc4)C(=O)C3C1N2Cc1cccc(Cl)c1 (stereo not drawn) [Example 41, endo-11-(3-Chlorobenzyl)-4-phenyl-4,11-diazatricyclo[5.3.1.0^2,6]undec-9-ene-3,5,8-trione Trifluoroacetate] | 49.5 µM | 2.35 µM |  | 
O=C1C=CC2C3C(=O)N(c4ccccc4)C(=O)C3C1N2Cc1cccc(Cl)c1 (stereo not drawn) [Example 42, exo-11-(3-Chlorobenzyl)-4-phenyl-4,11-diazatricyclo[5.3.1.0^2,6]undec-9-ene-3,5,8-trione Trifluoroacetate] | 76.4 µM | 0.76 µM |  | 
O=C1C=CC2C3C(=O)N(c4ccccc4)C(=O)C3C1N2Cc1cc(F)cc(F)c1 (centres unmarked) [Example 43, 11-(3,5-Difluorobenzyl)-4-phenyl-4,11-diazatricyclo[5.3.1.0^2,6]undec-9-ene-3,5,8-trione Trifluoroacetate] | 91.7 µM | 1.59 µM |  | 
Cc1cccc(CN2[C@@H]3C(=O)C=C[C@H]2C2C(=O)N(C)C(=O)C23)c1 (some centres unmarked) [Example 52] | > 100 µM | 1.81 µM |  | 
CN1C(=O)C2C(C1=O)C1C(=O)C=CC2N1C (stereo not drawn) [Example 60, exo-4,11-Dimethyl-4,11-diazatricyclo[5.3.1.0^2,6]undec-9-ene-3,5,8-trione Trifluoroacetate] | > 100 µM | 15.4 µM |  | 
Cc1cccc(CN2[C@@H]3C(=O)C=C[C@H]2C2C(=O)N(c4cccc(N5CCOCC5)c4)C(=O)C23)c1 (stereo partly drawn) [Example 69, endo-11-(3-Methylbenzyl)-4-(3-(4-morpholino)phenyl)-4,11-diazatricyclo-[5.3.1.0^2,6]undec-9-ene-3,5,8-trione Trifluoroacetate] | > 100 µM | 4.15 µM | > 100 µM | 7.4 µM
